Data reported in US9062051B2, “Compounds and pharmaceutical compositions thereof for the treatment of proliferative disorders” (GALAPAGOS NV, priority 2014, dated 2015).
Each block holds one compound with its values, some of them ahead of it.

Tests used:
EphA4 = molecular target: T1, EphA4 (UniProt Ref: P54764) (Homo sapiens, UniProt P54764); test: EphA4 assay (Reaction Biology HotSpot radioactive kinase assay); format: biochemical; settings: EphA4 potency; ATP 10 μM
T1 construct: purchased Reaction Biology
Protocol: Inhibition of EphA4 (UniProt Ref: P54764) by a test compound is determined by a commercially available Reaction Biology proprietary nanoliter radioactive HotSpot^SM assay (Reaction Biology, One great valley parkway, Suite 2, Malvern Pa., 19355, USA). The principle of the assay consists of the measurement of incorporated ^33P into poly[Glu:Tyr] (4:1) (0.2 mg/mL) when the substrate is phosphorylated by the enzyme using [^33P]-γ-ATP and ATP (10 μM).
To determine the IC50, a serial dilution of compound is tested starting from 10 or 3 μM (highest dilution) with a 1/3 dilution.

[1] = In vivo efficacy in the rat MNX (meniscectomised) model of osteoarthritis, OARSI score; parameters: species or system female Lewis rat; settings: versus MNX-vehicle
Description: In vivo efficacy was studied in a female Lewis meniscectomised rat (MNX) model. The MNX rat model is a well-validated disease model of osteoarthritis (Janusz et al., 2002; Pritzker et al., 2006; Bendele et al., 2001).
Osteoarthritis is induced by meniscectomy at day 0 (D0) in the right leg of each rat by a transection of the medial collateral ligament and 4 mm of ligament are removed. Internal part of the meniscus is transected vertically into two flaps which are pushed to the front and the back of the synovial cavity. Sham animals undergo only anaesthesia, skin and muscle incision then suture. On day 1, rats are randomly assigned to a treatment group (n=20 per group) according to their body weight, in order to have a homogenous distribution. From D2 to D21, rats are dosed per os (po) once daily (qd) or twice a day (bid) with compounds formulated in methylcellulose (MC) 0.5% or in HPβCD 10% pH3.0.
After at least 7 days of treatment, blood is sampled at 4 time points post administration: 0, 1, 3 and 6 h (and assuming 24 h is equal to the pre-dose sample), in order to determine steady-state plasma exposure.
At sacrifice, the right tibia of each rat is collected and processed for histological analysis. After 48 h of fixation in 4% formaldehyde, tibias are decalcified in Osteosoft for 7 days, and cut into 2 half parts prior to embedding face to face in paraffin. Five series of sections are cut at 200 μm intervals, covering about 1.5 mm of the middle part of the bone. One series of slides is stained with Safranin O and light green for morphological evaluation and OARSI scoring. The other series of slides are mounted with DAPI for chondrocyte density measurement.
The extent of cartilage injury reflecting osteoarthritis in the tibial plateau is evaluated and scored using the OARSI method based on the grading and the staging of cartilage lesion (Pritzker et al., 2006). The OARSI scoring is assessed in a blinded manner by two different readers. For each tibia, one score is attributed as the median of the OARSI score of the 5 sections.
OARSI score=grade×stage (1 to 24)
Grade=lesion depth into cartilage area, providing information on arthritis severity.
Stage=lesion extent over cartilage surface, providing information on arthritis extent.
For statistical analysis, medians of groups are compared with a stratified Kruskal-Wallis test followed by Dunnett multiple comparison post hoc test.
Significance levels: *p<0.05; **p<0.01; ***p<0.001 versus MNX-vehicle. Statistical analyses are done on all groups of the studies

[2] = Plasma exposure at day 7 in the MDA-MB-231 xenograft experiment; format: in vivo, Female BALB/c Mice; settings: for AUC: female, BALB/c, mouse, plasma, po
Protocol: 5 million MDA-MB-231 cells/mice in 0.1 mL of 50% Matrigel (BD biosciences, LDEV free 256235)+50% D-PBS 1× (Gibco 14190-086) are injected by subcutaneous route on the upper back of 120 mice. Prior to implantation, mice are anesthetized by intra-peritoneal injection with a 0.1 mL/10 g dose of anaesthetic solution (18 mL NaCl, 0.9%+0.5 mL xylazine, +1.5 mL ketamine. After implantation, tumours are regularly measured with a calliper, and mice with a mean tumour volume of about 200 mm^3 are randomized into groups of 10 individuals, and each group is dosed either with vehicle (p.o.), paclitaxel as control (3×/week, 20 mg/kg i.p.), or a test compound at doses of 3, 10, 30 or 100 mg/kg (p.o., QD, in 10 mL/kg administration volume)
Even at a 10 fold higher dosing (300 mg/kg, p.o.), Comparative Compound A remains 3.9 fold less exposed than Compound 55.

[3] = Pharmacokinetics in mice (exposure, AUC); format: in vivo; settings: male, CD1, plasma, mouse, po
Protocol: This study was performed with 42 naïve male CD1 mice (18-20 g, 4-5 weeks old). Mice are obtained from Janvier, Le Genest St Isle, France.
A controlled environment was maintained in the room with optimal conditions of approximately 15 air changes per hour, a temperature of 22±2 C, a relative humidity of 30-70% and a 12 hour light/12 hour dark cycle (nightlight during the night period).
Pelleted diet for rodents (UAR A04C-10) was used and was provided ad libitum. Before p.o. dosing, the animals are deprived of food for at least 12 hours before compound administration and 4 hours after administration. All animals had free access to tap water.
[…] The i.v. bolus administration is given with a dose volume of 5 mL/kg and the oral administration is given with a dose volume of 10 mL/kg. Actual dose volumes are based on the mean of 10 body weights.
The vehicle used to formulate compounds for oral administration is methylcellulose in water (0.5% in water)
From all animals approximately 500 μL blood samples are collected by intra-cardiac puncture under gaseous anesthesia and placed into tubes containing Li-heparin as anticoagulant. Blood samples are collected at various time points (i.v.: 0.05, 0.25, 0.5, 1, 3, 5 and 8 hours after dosing; p.o.: 0.25, 0.5, 1, 3, 5, 8 and 24 hours after dosing). Each mouse is sampled once and euthanized.
Blood is kept on ice. Within 1 hour after sampling, blood is centrifuged at 5,000 rpm for 10 min at 4° C. Immediately after centrifugation, the resulting plasma samples are collected into polypropylene tubes and are kept frozen at −20° C. pending bioanalysis.
Plasma samples are assayed by LC-MS/MS. Plasma proteins are precipitated with an excess of methanol containing the internal standard and the corresponding supernatant is injected on a C18 column. Analytes are eluted out the HPLC system by increasing the percentage of the organic mobile phase. An API4000 mass spectrometer (AB Sciex™) is used for the detection and quantification.
Pharmacokinetic parameters are calculated by non-compartmental analysis using WinNonlin® software (Pharsight, version 5.2).

T1 sequence (P54764 20-986): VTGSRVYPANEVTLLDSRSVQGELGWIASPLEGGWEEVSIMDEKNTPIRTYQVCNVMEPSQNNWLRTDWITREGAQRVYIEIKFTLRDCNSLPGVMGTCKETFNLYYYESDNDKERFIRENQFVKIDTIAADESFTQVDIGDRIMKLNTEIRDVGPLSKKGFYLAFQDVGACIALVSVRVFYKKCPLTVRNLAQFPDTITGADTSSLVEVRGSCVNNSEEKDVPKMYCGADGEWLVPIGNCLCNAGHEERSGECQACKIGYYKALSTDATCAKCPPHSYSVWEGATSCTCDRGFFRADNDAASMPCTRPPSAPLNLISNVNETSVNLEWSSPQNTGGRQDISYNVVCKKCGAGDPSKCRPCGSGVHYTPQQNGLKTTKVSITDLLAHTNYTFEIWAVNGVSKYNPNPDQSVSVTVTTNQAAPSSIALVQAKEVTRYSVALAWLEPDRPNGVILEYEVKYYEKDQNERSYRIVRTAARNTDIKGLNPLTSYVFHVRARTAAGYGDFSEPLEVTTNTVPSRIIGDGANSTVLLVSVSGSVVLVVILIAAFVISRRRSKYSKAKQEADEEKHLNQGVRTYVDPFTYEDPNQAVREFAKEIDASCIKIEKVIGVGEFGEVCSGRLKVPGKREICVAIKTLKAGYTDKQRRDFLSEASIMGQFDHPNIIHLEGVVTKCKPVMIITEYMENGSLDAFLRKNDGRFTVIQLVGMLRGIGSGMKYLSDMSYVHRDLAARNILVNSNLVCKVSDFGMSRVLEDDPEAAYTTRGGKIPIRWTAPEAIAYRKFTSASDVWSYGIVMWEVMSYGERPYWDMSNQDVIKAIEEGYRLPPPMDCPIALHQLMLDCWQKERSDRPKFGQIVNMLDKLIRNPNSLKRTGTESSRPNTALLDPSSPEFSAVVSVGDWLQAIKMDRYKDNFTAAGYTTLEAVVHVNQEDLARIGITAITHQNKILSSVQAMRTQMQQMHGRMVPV

SMILES: Cc1ccc(NC(=O)c2cccc(C(F)(F)F)c2)cc1-c1ccc2c(C(O)CN3CCOCC3)n[nH]c2n1 (centres unmarked) [Compound 2, N-{3-[3-(1-Hydroxy-2-morpholin-4-yl-ethyl)-1H-pyrazolo[3,4-b]pyridin-6-yl]-4-methyl-phenyl}-3-trifluoromethyl-benzamide]
IC50 (EphA4): 0.01 to 25 nM
OARSI score ([1]; 20 mg/kg): −17%, p < 0.05

SMILES: Cc1ccc(NC(=O)c2cccc(N(C)C)c2)cc1-c1ccc2c(C(O)CN3CCOCC3)n[nH]c2n1 (centres unmarked) [Compound 6, 3-Dimethylamino-N-{3-[3-(1-hydroxy-2-morpholin-4-yl-ethyl)-1H-pyrazolo[3,4-b]pyridin-6-yl]-4-methyl-phenyl}-benzamide]
OARSI score ([1]; 30 mg/kg): ns

SMILES: CCc1n[nH]c2nc(-c3cc(NC(=O)c4cc(OC)cc(OC)c4)cnc3C)ccc12 [Compound 13, N-[5-(3-Ethyl-1H-pyrazolo[3,4-b]pyridin-6-yl)-6-methyl-pyridin-3-yl]-3,5-dimethoxy-benzamide]
OARSI score ([1]; 30 mg/kg): ns

Further lines, with some results ahead:

IC50 (EphA4): 50 to 100 nM
SMILES: COc1cc(OC)cc(C(=O)Nc2ccc(C)c(-c3ccc4c(C(C)O)n[nH]c4n3)c2)c1 (centres unmarked) [Compound 9, N-{3-[3-(1-Hydroxy-ethyl)-1H-pyrazolo[3,4-b]pyridin-6-yl]-4-methyl-phenyl}-3,5-dimethoxy-benzamide]
OARSI score ([1]; 30 mg/kg): ns

IC50 (EphA4): > 100 nM
SMILES: COc1cc(OC)cc(C(=O)Nc2ccc(C)c(-c3ccc4c(C5(O)CC5)n[nH]c4n3)c2)c1 [Compound 29, N-{3-[3-(1-Hydroxy-cyclopropyl)-1H-pyrazolo[3,4-b]pyridin-6-yl]-4-methyl-phenyl}-3,5-dimethoxy-benzamide]
OARSI score ([1]; 15 mg/kg): ns

exposure compared with comparative Compound A ([2]; even if Compound A is administered at a 10 fold higher dose): higher
AUC ([2]; day 7, 30 mg/kg p.o.): 31 µg·h/mL
fold higher exposure than the comparison compound A ([2]; plasma exposure at day 7, both at 30 mg/kg p.o.): > 24 fold
IC50 (EphA4): 25 to 50 nM
AUC ([3]; 5 mg/kg): 0.851 µg·h/mL
AUC ([3]; 30 mg/kg): 31.6 µg·h/mL
SMILES: Cc1ccc(NC(=O)c2cccc(C(F)(F)F)c2)cc1-c1ccc2c([C@H](C)O)n[nH]c2n1 [Compound 55, N-{3-[3-((S)-1-Hydroxy-ethyl)-1H-pyrazolo[3,4-b]pyridin-6-yl]-4-methyl-phenyl}-3-trifluoromethyl-benzamide]
OARSI score ([1]; 30 mg/kg): −23%, p < 0.05

AUC ([2]; day 7, 30 mg/kg p.o.): 1.28 µg·h/mL
AUC ([2]; day 7, 100 mg/kg p.o.): 4.24 µg·h/mL
AUC ([2]; day 7, 300 mg/kg p.o.): 7.92 µg·h/mL
fold less exposed than Compound 55 ([2]; plasma exposure at day 7, Compound A at 300 mg/kg p.o. (10 fold higher dosing)): 3.9 fold
AUC ([3]; 30 mg/kg): 1.13 µg·h/mL
SMILES: Cc1ccc(NC(=O)c2cccc(C(F)(F)F)c2)cc1-c1cc(C)c2c(N)n[nH]c2n1 [Compound A, N-(3-(3-amino-4-methyl-1H-pyrazolo[3,4-b]pyridin-6-yl)-4-methylphenyl)-3-(trifluoromethyl)benzamide]
